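Where inhibition never reached the appropriate level, the endpoint shown equals the highest concentration tested. Otherwise, values were interpolated linearly from a five-concentration, 48-hour dose response in 96-well plates. GI50 marks 50% less growth. Definition used: TGI = concentration required for complete inhibition of growth.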
Legend:
Assay in all cases: NCI anticancer screen, dose series, 48 h
EKVX NSCLC = system: EKVX NSCLC
NCI/ADR-RES ovarian = system: NCI/ADR-RES ovarian
M14 melanoma = system: M14 melanoma
NCI-H226 lung = system: NCI-H226 lung
PC-3 prostate = system: PC-3 prostate
MDA-MB-435 = system: MDA-MB-435
MDA-MB-231 breast = system: MDA-MB-231 breast
SR leukemia = system: SR leukemia
UACC-62 melanoma = system: UACC-62 melanoma
SK-MEL-2 melanoma = system: SK-MEL-2 melanoma

## Clc1cccc(-c2sc(-c3cccs3)cc2Cc2cccs2)c1
EKVX NSCLC
  TGI: > 10 µM
NCI/ADR-RES ovarian
  TGI: > 10 µM
M14 melanoma
  TGI: > 10 µM
NCI-H226 lung
  TGI: > 10 µM
PC-3 prostate
  TGI: > 10 µM
MDA-MB-435
  TGI: > 10 µM
MDA-MB-231 breast
  TGI: > 10 µM
SR leukemia
  TGI: > 10 µM
UACC-62 melanoma
  TGI: > 10 µM

## COC(=O)/C=C(\C)CC/C=C(\C)CCC1OC1(C)C (stereo unspecified)
EKVX NSCLC
  TGI: 24.3 µM
NCI/ADR-RES ovarian
  TGI: 28 µM
M14 melanoma
  TGI: 22.9 µM
NCI-H226 lung
  TGI: 24.8 µM
PC-3 prostate
  TGI: 17.4 µM
MDA-MB-231 breast
  TGI: 23.4 µM
SR leukemia
  TGI: 23.4 µM
UACC-62 melanoma
  TGI: 19.8 µM
SK-MEL-2 melanoma
  TGI: 21.2 µM

## CC1CC(N2CCOCC2)=Nc2ccccc2N1C (stereo unspecified)
EKVX NSCLC
  TGI: > 100 µM
NCI/ADR-RES ovarian
  TGI: > 100 µM
M14 melanoma
  TGI: > 100 µM
NCI-H226 lung
  TGI: > 100 µM
PC-3 prostate
  TGI: > 100 µM
MDA-MB-435
  TGI: > 100 µM
MDA-MB-231 breast
  TGI: > 100 µM
UACC-62 melanoma
  TGI: > 100 µM
SK-MEL-2 melanoma
  TGI: > 100 µM

## Cc1c(N2CCOCC2)nc2ccc(Cl)cc2c1-c1ccccc1
EKVX NSCLC
  TGI: > 100 µM
M14 melanoma
  TGI: > 100 µM
SR leukemia
  TGI: > 100 µM
UACC-62 melanoma
  TGI: > 100 µM
SK-MEL-2 melanoma
  TGI: > 100 µM

## O=C(c1ccco1)N(C(=O)N1CCCCC1)c1ccccc1
EKVX NSCLC
  TGI: > 100 µM
NCI/ADR-RES ovarian
  TGI: > 100 µM
M14 melanoma
  TGI: > 100 µM
NCI-H226 lung
  TGI: > 100 µM
PC-3 prostate
  TGI: > 100 µM
MDA-MB-435
  TGI: > 100 µM
MDA-MB-231 breast
  TGI: > 100 µM
UACC-62 melanoma
  TGI: > 100 µM
SK-MEL-2 melanoma
  TGI: > 100 µM

## CC(=O)O[C@@H](c1nccn1Cc1ccccc1)[C@H]1OC(C)(C)O[C@@H]1[C@H]1COC(C)(C)O1
EKVX NSCLC
  TGI: > 100 µM
NCI/ADR-RES ovarian
  TGI: > 100 µM
NCI-H226 lung
  TGI: > 100 µM
PC-3 prostate
  TGI: > 100 µM
MDA-MB-435
  TGI: > 100 µM
MDA-MB-231 breast
  TGI: > 100 µM
UACC-62 melanoma
  TGI: > 100 µM
SK-MEL-2 melanoma
  TGI: > 100 µM

## COC(=O)CNC(=O)C(CSC(=O)OCC1c2ccccc2-c2ccccc21)NC(=O)CCC(NC(=O)OCC1c2ccccc2-c2ccccc21)C(=O)OC (stereo unspecified)
EKVX NSCLC
  TGI: > 100 µM
NCI/ADR-RES ovarian
  TGI: > 100 µM
M14 melanoma
  TGI: 58.9 µM
NCI-H226 lung
  TGI: > 100 µM
PC-3 prostate
  TGI: > 100 µM
MDA-MB-435
  TGI: 67.4 µM
MDA-MB-231 breast
  TGI: 30.2 µM
SR leukemia
  TGI: 37.5 µM
SK-MEL-2 melanoma
  TGI: 31.1 µM

## CN(/N=C1\C(=O)Nc2ccccc21)c1ccccc1
EKVX NSCLC
  TGI: > 100 µM
M14 melanoma
  TGI: > 100 µM
NCI-H226 lung
  TGI: > 100 µM
PC-3 prostate
  TGI: > 100 µM
MDA-MB-435
  TGI: > 100 µM
MDA-MB-231 breast
  TGI: 62.5 µM
SR leukemia
  TGI: > 100 µM
UACC-62 melanoma
  TGI: > 100 µM
SK-MEL-2 melanoma
  TGI: > 100 µM

## O=c1oc2ccc3ccccc3c2cc1-c1cn2ccsc2n1
EKVX NSCLC
  TGI: 54.5 µM
NCI/ADR-RES ovarian
  TGI: 96.2 µM
M14 melanoma
  TGI: 60.5 µM
PC-3 prostate
  TGI: 96.4 µM
MDA-MB-435
  TGI: 46 µM
MDA-MB-231 breast
  TGI: 57.4 µM
SR leukemia
  TGI: 46.9 µM
UACC-62 melanoma
  TGI: 34.2 µM
SK-MEL-2 melanoma
  TGI: > 100 µM

## CCCCCCCCCCCCCCCCCCOc1ccccc1CC(=O)NCC[N+]1(C)CCOCC1
EKVX NSCLC
  GI50: 8.62 µM
  TGI: 56.2 µM
NCI/ADR-RES ovarian
  GI50: 18.3 µM
  TGI: 56.8 µM
M14 melanoma
  GI50: 4.32 µM
  TGI: > 100 µM
NCI-H226 lung
  GI50: 4.9 µM
  TGI: 89 µM
MDA-MB-435
  GI50: 7.85 µM
  TGI: 32.9 µM
MDA-MB-231 breast
  GI50: 2760 nM
  TGI: 8.34 µM
UACC-62 melanoma
  GI50: 4.31 µM
  TGI: 30.7 µM
SK-MEL-2 melanoma
  GI50: 13.9 µM
  TGI: 34.6 µM

## COC(=O)[C@]1(C)CCC[C@@]2(C)C1CC[C@]13C=C(C(C)C)[C@H](CC21)CC3(Cl)C#N (stereo partly specified)
EKVX NSCLC
  TGI: 77.3 µM
NCI/ADR-RES ovarian
  TGI: > 100 µM
M14 melanoma
  TGI: > 100 µM
NCI-H226 lung
  TGI: 75.4 µM
PC-3 prostate
  TGI: > 100 µM
MDA-MB-435
  TGI: > 100 µM
MDA-MB-231 breast
  TGI: > 100 µM
SR leukemia
  TGI: > 100 µM
UACC-62 melanoma
  TGI: > 100 µM

— PubChem BioAssay (NCI)
